Reference: patent US9656988B2 (Pharmacyclics LLC, priority 2013, dated 2017)
Read-outs that look alike come from different tables or passages of the source.

Target: BTK (Homo sapiens (Human), UniProt Q06187)
Test: Btk in vitro inhibitory activity (one of Method A TR-FRET, Method B electrophoretic mobility shift, Method C radiometric filter binding)
Format: biochemical
[1] = determined using one of the methods of Example 355a, 355b and 355c, read-out: BTK IC50

Sequence of BTK (Q06187 whole entry): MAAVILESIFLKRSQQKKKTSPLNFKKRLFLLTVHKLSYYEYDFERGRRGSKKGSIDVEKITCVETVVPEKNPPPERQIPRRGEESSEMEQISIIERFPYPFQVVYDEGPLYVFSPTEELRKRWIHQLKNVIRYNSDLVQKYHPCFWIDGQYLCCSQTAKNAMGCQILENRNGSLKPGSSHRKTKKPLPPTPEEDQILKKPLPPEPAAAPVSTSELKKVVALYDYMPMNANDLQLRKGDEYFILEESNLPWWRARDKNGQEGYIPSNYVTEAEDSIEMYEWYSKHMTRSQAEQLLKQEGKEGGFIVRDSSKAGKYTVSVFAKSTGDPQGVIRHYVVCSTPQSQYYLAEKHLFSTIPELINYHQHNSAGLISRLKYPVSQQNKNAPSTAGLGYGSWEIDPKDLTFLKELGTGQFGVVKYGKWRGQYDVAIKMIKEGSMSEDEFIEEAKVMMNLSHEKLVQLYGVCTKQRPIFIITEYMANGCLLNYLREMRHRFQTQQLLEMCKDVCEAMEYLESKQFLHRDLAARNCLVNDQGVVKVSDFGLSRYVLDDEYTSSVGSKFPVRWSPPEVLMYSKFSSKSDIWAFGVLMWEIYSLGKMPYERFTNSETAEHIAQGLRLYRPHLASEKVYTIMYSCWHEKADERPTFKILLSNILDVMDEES

IC50 [1] [nM]	IC50 (read-out: Btk (IC50)) [nM]	IC50 (Btk (IC50)) [nM]	Compound	IC50 [nM]
< 10	< 10	–	CN(C)C(=O)N[C@@H]1CCCN(c2cnc(C(N)=O)c(Nc3ccc(C4CCN(CCOCCO)CC4)cc3)n2)C1 [Example 177, (R)-5-(3-(3,3-dimethylureido)piperidin-1-yl)-3-(4-(1-(2-(2-hydroxyethoxy)ethyl)piperidin-4-yl)phenylamino)pyrazine-2-carboxamide]	–
10 to 100	10 to 100	–	CN(C)C(=O)N[C@@H]1CCCN(c2cnc(C(N)=O)c(Nc3ccc(F)cc3)n2)C1 [Example 179, (R)-5-(3-(3,3-dimethylureido)piperidin-1-yl)-3-(4-fluorophenylamino)pyrazine-2-carboxamide]	–
100 to 1000	–	–	CN(C)C(=O)N[C@@H]1CCCN(c2cnc(C(N)=O)c(Nc3ccccc3)n2)C1 [Example 180, (R)-5-(3-(3,3-dimethylureido)piperidin-1-yl)-3-(phenylamino)pyrazine-2-carboxamide]	–
10 to 100	–	–	CN(C)C(=O)N[C@@H]1CCCN(c2cnc(C(N)=O)c(Nc3ccc(Cl)cc3)n2)C1 [Example 181, (R)-3-(4-chlorophenylamino)-5-(3-(3,3-dimethylureido)piperidin-1-yl)pyrazine-2-carboxamide]	–
10 to 100	–	10 to 100	CN(C)C(=O)N[C@@H]1CCCN(c2cnc(C(N)=O)c(Nc3ccc(=O)n(C)c3)n2)C1 [Example 186, (R)-5-(3-(3,3-dimethylureido)piperidin-1-yl)-3-(1-methyl-6-oxo-1,6-dihydropyridin-3-ylamino)pyrazine-2-carboxamide]	–
10 to 100	–	10 to 100	Cc1cc(Nc2nc(N3CCC[C@@H](NC(=O)N(C)C)C3)cnc2C(N)=O)sn1 [Example 187, (R)-5-(3-(3,3-dimethylureido)piperidin-1-yl)-3-(3-methylisothiazol-5-ylamino)pyrazine-2-carboxamide]	–
< 10	< 10	–	CC(C)Oc1ccc(Nc2nc(N3CCC[C@@H](NC(=O)N(C)C)C3)cnc2C(N)=O)cc1 [Example 188, (R)-5-(3-(3,3-dimethylureido)piperidin-1-yl)-3-(4-isopropoxyphenylamino)pyrazine-2-carboxamide]	–
10 to 100	–	10 to 100	CN(C)C(=O)N[C@@H]1CCCN(c2cnc(C(N)=O)c(Nc3ccc(OC4CCCC4)cc3)n2)C1 [Example 189, (R)-3-(4-(cyclopentyloxy)phenylamino)-5-(3-(3,3-dimethylureido)piperidin-1-yl)pyrazine-2-carboxamide]	–
10 to 100	–	10 to 100	CN(C)CCOc1ccc(Nc2nc(N3CCC[C@@H](NC(=O)N(C)C)C3)cnc2C(N)=O)cc1 [Example 191, (R)-3-(4-(2-(dimethylamino)ethoxy)phenylamino)-5-(3-(3,3-dimethylureido)piperidin-1-yl)pyrazine-2-carboxamide]	–
10 to 100	–	10 to 100	CN(C)C(=O)N[C@@H]1CCCN(c2cnc(C(N)=O)c(Nc3ccc([N+](=O)[O-])cc3)n2)C1 [Example 192, (R)-5-(3-(3,3-dimethylureido)piperidin-1-yl)-3-(4-nitrophenylamino)pyrazine-2-carboxamide]	–
10 to 100	–	10 to 100	CN(C)Cc1ccc(Nc2nc(N3CCC[C@@H](NC(=O)N(C)C)C3)cnc2C(N)=O)cc1 [Example 193, (R)-3-(4-((dimethylamino)methyl)phenylamino)-5-(3-(3,3-dimethylureido)piperidin-1-yl)pyrazine-2-carboxamide]	–
< 10	< 10	–	CN(C)C(=O)N[C@@H]1CCCN(c2cnc(C(N)=O)c(Nc3ccc(C(=O)N(C)C)cc3)n2)C1 [Example 194, (R)-3-(4-(dimethylcarbamoyl)phenylamino)-5-(3-(3,3-dimethylureido)piperidin-1-yl)pyrazine-2-carboxamide]	–
10 to 100	–	–	CN(C)C(=O)N[C@@H]1CCCN(c2cnc(C(N)=O)c(Nc3ccc(C(=O)Nc4ccccn4)cc3)n2)C1 [Example 196, (R)-5-(3-(3,3-dimethylureido)piperidin-1-yl)-3-(4-(pyridin-2-ylcarbamoyl)phenylamino)pyrazine-2-carboxamide]	–
< 10	< 10	–	CN(C)C(=O)N[C@@H]1CCCN(c2cnc(C(N)=O)c(Nc3ccc(C(C)(C)C#N)cc3)n2)C1 [Example 197, (R)-3-(4-(2-cyanopropan-2-yl)phenylamino)-5-(3-(3,3-dimethylureido)piperidin-1-yl)pyrazine-2-carboxamide]	–
10 to 100	10 to 100	–	CN(C)C(=O)N[C@@H]1CCCN(c2cnc(C(N)=O)c(Nc3ccc(C(C)(C)C(N)=O)cc3)n2)C1 [Example 198, (R)-3-(4-(1-amino-2-methyl-1-oxopropan-2-yl)phenylamino)-5-(3-(3,3-dimethylureido)piperidin-1-yl)pyrazine-2-carboxamide]	–
< 10	< 10	–	CN(C)C(=O)N[C@@H]1CCCN(c2cnc(C(N)=O)c(Nc3ccc(C4(C#N)CC4)cc3)n2)C1 [Example 199, (R)-3-(4-(1-cyanocyclopropyl)phenylamino)-5-(3-(3,3-dimethylureido)piperidin-1-yl)pyrazine-2-carboxamide]	–
10 to 100	–	–	CN(C)C(=O)N[C@@H]1CCCN(c2cnc(C(N)=O)c(Nc3ccc(C4(CN)CC4)cc3)n2)C1 [Example 201, (R)-3-(4-(1-(aminomethyl)cyclopropyl)phenylamino)-5-(3-(3,3-dimethylureido)piperidin-1-yl)pyrazine-2-carboxamide]	–
< 10	< 10	–	CN(C)C(=O)N[C@@H]1CCCN(c2cnc(C(N)=O)c(Nc3ccc(C4(C(=O)N(C)C)CC4)cc3)n2)C1 [Example 202, (R)-3-(4-(1-(dimethylcarbamoyl)cyclopropyl)phenylamino)-5-(3-(3,3-dimethylureido)piperidin-1-yl)pyrazine-2-carboxamide]	–
< 10	–	< 10	CN(C)C(=O)N[C@@H]1CCCN(c2cnc(C(N)=O)c(Nc3ccc(C4(C#N)CCCC4)cc3)n2)C1 [Example 203, (R)-3-(4-(1-cyanocyclopentyl)phenylamino)-5-(3-(3,3-dimethylureido)piperidin-1-yl)pyrazine-2-carboxamide]	–
10 to 100	10 to 100	–	CN(C)C(=O)N[C@@H]1CCCN(c2cnc(C(N)=O)c(Nc3ccc(C4(CN)CCCC4)cc3)n2)C1 [Example 204, (R)-3-(4-(1-(aminomethyl)cyclopentyl)phenylamino)-5-(3-(3,3-dimethylureido)piperidin-1-yl)pyrazine-2-carboxamide]	–
10 to 100	–	10 to 100	CCN1CCC(c2ccc(Nc3nc(N4CCC[C@@H](NC(=O)N(C)C)C4)cnc3C(N)=O)cc2)CC1 [Example 207, (R)-5-(3-(3,3-dimethylureido)piperidin-1-yl)-3-(4-(1-ethylpiperidin-4-yl)phenylamino)pyrazine-2-carboxamide]	–
< 10	< 10	–	CC(C)N1CCC(c2ccc(Nc3nc(N4CCC[C@@H](NC(=O)N(C)C)C4)cnc3C(N)=O)cc2)CC1 [Example 208, (R)-5-(3-(3,3-dimethylureido)piperidin-1-yl)-3-(4-(1-isopropylpiperidin-4-yl)phenylamino)pyrazine-2-carboxamide]	–
10 to 100	–	–	CC(C)[N+]1([O-])CCC(c2ccc(Nc3nc(N4CCC[C@@H](NC(=O)N(C)C)C4)cnc3C(N)=O)cc2)CC1 (stereo partly drawn) [Example 209, (R)-4-(4-(3-carbamoyl-6-(3-(3,3-dimethylureido)piperidin-1-yl)pyrazin-2-ylamino)phenyl)-1-isopropylpiperidine 1-oxide]	–
< 10	< 10	–	CN(C)C(=O)N[C@@H]1CCCN(c2cnc(C(N)=O)c(Nc3ccc(C4CCN(C5CCCCC5)CC4)cc3)n2)C1 [Example 210, (R)-3-(4-(1-cyclohexylpiperidin-4-yl)phenylamino)-5-(3-(3,3-dimethylureido)piperidin-1-yl)pyrazine-2-carboxamide]	–
10 to 100	–	10 to 100	CN(C)C(=O)N[C@@H]1CCCN(c2cnc(C(N)=O)c(Nc3ccc(C4CCNCC4)cc3Cl)n2)C1 [Example 213, (R)-3-(2-chloro-4-(piperidin-4-yl)phenylamino)-5-(3-(3,3-dimethylureido)piperidin-1-yl)pyrazine-2-carboxamide]	–
< 10	< 10	–	CN(C)C(=O)N[C@@H]1CCCN(c2cnc(C(N)=O)c(Nc3ccc(N4CCN(C5CC5)CC4)cc3)n2)C1 [Example 214, (R)-3-(4-(4-cyclopropylpiperazin-1-yl)phenylamino)-5-(3-(3,3-dimethylureido)piperidin-1-yl)pyrazine-2-carboxamide]	–

Compound	IC50 [1] [nM]	IC50 (read-out: Btk (IC50)) [nM]	IC50 (Btk (IC50)) [nM]	IC50 [nM]
COc1cc(Nc2nc(N3CCC[C@@H](NC(=O)N(C)C)C3)cnc2C(N)=O)ccc1Cl [Example 182, (R)-3-(4-chloro-3-methoxyphenylamino)-5-(3-(3,3-dimethylureido)piperidin-1-yl)pyrazine-2-carboxamide]	100 to 1000	–	100 to 1000	–
COc1cc(Nc2nc(N3CCC[C@@H](NC(=O)N(C)C)C3)cnc2C(N)=O)ccc1C [Example 183, (R)-5-(3-(3,3-dimethylureido)piperidin-1-yl)-3-(3-methoxy-4-methylphenylamino)pyrazine-2-carboxamide]	100 to 1000	–	–	100 to 1000
Cc1nc(Nc2nc(N3CCC[C@@H](NC(=O)N(C)C)C3)cnc2C(N)=O)ccc1F [Example 184, (R)-5-(3-(3,3-dimethylureido)piperidin-1-yl)-3-(5-fluoro-6-methylpyridin-2-ylamino)pyrazine-2-carboxamide]	1000 to 10000	–	–	100 to 1000
CN(C)C(=O)N[C@@H]1CCCN(c2cnc(C(N)=O)c(Nc3ccn(C)c(=O)c3)n2)C1 [Example 185, (R)-5-(3-(3,3-dimethylureido)piperidin-1-yl)-3-(1-methyl-2-oxo-1,2-dihydropyridin-4-ylamino)pyrazine-2-carboxamide]	100 to 1000	–	100 to 1000	–
CN(C)C(=O)N[C@@H]1CCCN(c2cnc(C(N)=O)c(Nc3ccc(C(=O)N4CCCC4)cc3)n2)C1 [Example 195, (R)-5-(3-(3,3-dimethylureido)piperidin-1-yl)-3-(4-(pyrrolidine-1-carbonyl)phenylamino)pyrazine-2-carboxamide]	< 10	–	–	–
